Where two headings read alike, the source gives them in different places.
Tests used:
Hemoglobin (Hgb) = Hemoglobin (Hgb) (Felis catus, UniProt P07405+P07412)
Procedure: (§1) Assays were run to determine the selectivity of azide for interference from EPO, MPO and hemoglobin. Activities were measured in solution using a peroxidase substrate consisting of, per liter, 1.4 mmol of TMB, 0.3 mmol of hydrogen peroxide, 20 mmol of sodium chloride, 30 mg of Triton X-100, and 100 g of sucrose. HRP was a conjugate of chicken antibody (used in Example 1). MPO and EPO were essentially homogeneous commercial preparations isolated from human leukocytes. Hemoglobin (Hgb) was obtained as a Triton X-100 lysate of feline erythrocytes.

HRP [1] = target: T1, HRP (Armoracia rusticana, UniProt P00433)
Procedure: as §1

MPO = MPO (Homo sapiens, UniProt P05164)
Procedure: as §1

EPO = EPO (Homo sapiens, UniProt P11678)
Procedure: as §1

HRP [2] = target: T1, HRP; conditions: for effect on assay sensitivity: both substrates (TMBlue, TMBM); for 50 μM azide (mA) / 100 μM azide (mA) / 500 μM Azide (mA): serum
Procedure: (§2) SLF5 glass fiber discs, 6.4 mm diameter (Whatman, Inc.) were sensitized with 13 μL of 1 mg/mL rabbit anti-heartworm antibody containing 0.7% sodium bicarbonate, 2% sucrose, and 30 μg/mL FDC Blue 1 dye. Heartworm antibody can be produced from heartworm antigen prepared by disrupting a parasitic worm in an aqueous buffer solution, centrifuging to remove insoluble and particulate components, adding of trichloroacetic acid to a concentration of 15% w/v, centrifuging to remove insoluble components, dialyzing against an aqueous buffer solution and lyophilizing. This antigen preparation is used to produce antibodies in mammals using standard methods (see, e.g., Harlow, E. and D. Lane, 1988, “Antibodies: A Laboratory manual”, Cold Spring Harbor Laboratory, Cod Spring Harbor, N.Y., USA, ISBN 0-87969-314-2 pp 92-286).
(§3) The discs were washed with buffer containing, per liter, 25 mmol of 3-(N-morpholino)-2-hydroxypropane sulfonic acid MOPSO, 100 mmol of NaCl, 1 g of Brij® 35 and 1 g of tetrasodium EDTA, pH 7.4. Two 15 μL drops of a mixture of 100 μL of whole canine blood containing 950 eosinophils per μL (normal range: 100-1500 eosinophils per μL), 0.5%-25% v/v of heartworm extract in fetal bovine serum and 25 μL of 100 μg/mL of chicken anti-heartworm HRP-conjugated antibody was added to the glass fiber disc and allowed to incubate for 5 minutes at 23C. The discs were washed with a buffered bland protein solution containing 1% Triton X-100 and transferred to polystyrene microwells.
(§4) A peroxidase substrate containing 100 μmol per liter of sodium azide, was added to the discs and allowed to incubate for 10 minutes, after which time the amount of blue color produced was measured by bichromatic absorbance at 650 nm-562 nm, compensating the background contribution from the glass fiber matrix. Duplicate discs were also processed in an identical manner except these were incubated instead with the peroxidase substrate but lacking in azide.
The TMBlue® substrate was incubated with the glass fiber discs for 3 minutes and TMBM substrate was incubated for 15 minutes until bichromatic measurement at 650 mn-562 nm.

[3] = even down to pH 3; cited from earlier work
[4] = Procedure: Above pH 6 the activity of some peroxidase substrates declines. […] Incubation times longer than 30 minutes have not been very useful in peroxidase-based analysis due to substrate evaporation and gradual inactivation of peroxidase by peroxide, which occurs naturally after a limited number of catalytic cycles.
[5] = system: endogenous canine peroxidase; conditions: 100 μmol per liter sodium azide, whole canine blood, 10 minutes
Procedure: as §2, §3, §4

[6] = TMBM substrate, 15 minutes, heartworm antigen 0%
[7] = TMBM substrate, 15 minutes, heartworm antigen 5%
[8] = TMBM substrate, 15 minutes, heartworm antigen 10%
[9] = TMBM substrate, 15 minutes, heartworm antigen 25%
[10] = TMBM substrate, 15 minutes, heartworm antigen 50%
[11] = TMBM substrate, 15 minutes, heartworm antigen 100%
[12] = TMBlue substrate, 3 minutes, heartworm antigen 0%
[13] = TMBlue substrate, 3 minutes, heartworm antigen 5%
[14] = TMBlue substrate, 3 minutes, heartworm antigen 10%
[15] = TMBlue substrate, 3 minutes, heartworm antigen 25%
[16] = TMBlue substrate, 3 minutes, heartworm antigen 50%
[17] = TMBlue substrate, 3 minutes, heartworm antigen 100%

T1 sequence (P00433 31-338): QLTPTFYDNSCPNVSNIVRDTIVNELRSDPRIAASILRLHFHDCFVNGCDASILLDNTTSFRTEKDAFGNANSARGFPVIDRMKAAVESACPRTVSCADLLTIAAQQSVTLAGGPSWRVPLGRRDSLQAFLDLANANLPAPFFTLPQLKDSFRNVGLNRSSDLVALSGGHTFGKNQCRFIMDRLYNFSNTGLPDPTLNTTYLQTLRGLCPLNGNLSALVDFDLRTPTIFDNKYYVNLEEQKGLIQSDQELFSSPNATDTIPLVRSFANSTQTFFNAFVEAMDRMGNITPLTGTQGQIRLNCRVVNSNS
Chain of Hemoglobin (Hgb) (P07405 whole entry): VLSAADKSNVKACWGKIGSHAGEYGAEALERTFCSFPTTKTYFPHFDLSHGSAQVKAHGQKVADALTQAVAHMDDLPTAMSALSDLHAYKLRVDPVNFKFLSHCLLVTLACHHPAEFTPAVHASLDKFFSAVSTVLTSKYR
Chain of Hemoglobin (Hgb) (P07412 whole entry): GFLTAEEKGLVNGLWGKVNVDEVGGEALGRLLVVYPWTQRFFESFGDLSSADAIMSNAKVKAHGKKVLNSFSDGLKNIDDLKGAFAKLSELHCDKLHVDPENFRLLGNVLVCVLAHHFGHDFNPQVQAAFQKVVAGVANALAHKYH
Chain of EPO (P11678 251-715 limits assumed): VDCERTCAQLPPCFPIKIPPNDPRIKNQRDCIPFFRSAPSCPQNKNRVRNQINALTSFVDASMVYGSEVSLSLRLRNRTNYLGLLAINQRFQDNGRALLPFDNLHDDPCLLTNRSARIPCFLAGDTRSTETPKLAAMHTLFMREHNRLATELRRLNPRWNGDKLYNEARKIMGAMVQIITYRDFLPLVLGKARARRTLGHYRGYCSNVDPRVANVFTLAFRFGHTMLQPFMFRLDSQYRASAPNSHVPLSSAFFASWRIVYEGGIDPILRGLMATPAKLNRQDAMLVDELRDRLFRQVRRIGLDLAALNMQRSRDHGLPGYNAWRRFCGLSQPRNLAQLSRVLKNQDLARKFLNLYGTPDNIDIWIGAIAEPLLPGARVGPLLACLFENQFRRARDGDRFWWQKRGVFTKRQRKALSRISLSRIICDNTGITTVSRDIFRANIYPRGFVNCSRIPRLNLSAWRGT
Chain of EPO (P11678 140-250 limits assumed): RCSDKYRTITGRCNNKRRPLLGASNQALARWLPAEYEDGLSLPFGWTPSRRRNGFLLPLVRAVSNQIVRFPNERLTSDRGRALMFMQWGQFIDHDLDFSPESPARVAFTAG
Chain of MPO (P05164 279-745 limits assumed): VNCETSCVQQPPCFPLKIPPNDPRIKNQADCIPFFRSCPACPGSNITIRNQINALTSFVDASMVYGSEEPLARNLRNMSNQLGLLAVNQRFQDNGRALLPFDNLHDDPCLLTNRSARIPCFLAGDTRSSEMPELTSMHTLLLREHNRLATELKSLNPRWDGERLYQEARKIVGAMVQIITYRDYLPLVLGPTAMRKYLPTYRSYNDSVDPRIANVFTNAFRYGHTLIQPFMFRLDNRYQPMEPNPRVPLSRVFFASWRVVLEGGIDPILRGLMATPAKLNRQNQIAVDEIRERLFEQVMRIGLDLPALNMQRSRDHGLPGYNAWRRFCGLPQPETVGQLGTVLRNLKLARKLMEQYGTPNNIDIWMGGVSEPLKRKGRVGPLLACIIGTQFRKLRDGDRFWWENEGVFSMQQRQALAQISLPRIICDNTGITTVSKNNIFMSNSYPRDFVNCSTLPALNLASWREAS
Chain of MPO (P05164 165-273 limits assumed): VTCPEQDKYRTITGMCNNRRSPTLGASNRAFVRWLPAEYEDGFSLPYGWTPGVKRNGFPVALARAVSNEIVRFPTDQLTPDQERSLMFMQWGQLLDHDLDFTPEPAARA

## [N-]=[N+]=[N-].[Na+] [azide, sodium azide]
Hemoglobin (Hgb); 3 μM azide
  % of control activity (without azide), Hgb: 99.7%
Hemoglobin (Hgb); 30 μM azide
  % of control activity (without azide), Hgb: 26.4%
HRP [1]; 3 μM azide
  % of control activity (without azide), HRP: 101%
HRP [1]; 30 μM azide
  % of control activity (without azide), HRP: 83.5%
MPO; 3 μM azide
  % of control activity (without azide), MPO: 63.1%
MPO; 30 μM azide
  % of control activity (without azide), MPO: 15.5%
EPO; 3 μM azide
  % of control activity (without azide), EPO: 13.4%
EPO; 30 μM azide
  % of control activity (without azide), EPO: 0.7%
HRP [2]; 500 μM azide
  effect on assay sensitivity: the decrease in sensitivity is not severe
HRP [2]; [6]
  50 μM azide (mA): 46 mA
  100 μM azide (mA): 73 mA
HRP [2]; [7]
  50 μM azide (mA): 138 mA
  100 μM azide (mA): 123 mA
HRP [2]; [8]
  50 μM azide (mA): 196 mA
  100 μM azide (mA): 197 mA
HRP [2]; [9]
  50 μM azide (mA): 264 mA
  100 μM azide (mA): 324 mA
HRP [2]; [10]
  50 μM azide (mA): 535 mA
  100 μM azide (mA): 511 mA
HRP [2]; [11]
  50 μM azide (mA): 776 mA
  100 μM azide (mA): 800 mA
HRP [2]; TMBM substrate, 15 minutes, 500 μM azide, heartworm antigen 0%
  500 μM Azide (mA): 37 mA
HRP [2]; TMBM substrate, 15 minutes, 500 μM azide, heartworm antigen 5%
  500 μM Azide (mA): 70 mA
HRP [2]; TMBM substrate, 15 minutes, 500 μM azide, heartworm antigen 10%
  500 μM Azide (mA): 112 mA
HRP [2]; TMBM substrate, 15 minutes, 500 μM azide, heartworm antigen 25%
  500 μM Azide (mA): 173 mA
HRP [2]; TMBM substrate, 15 minutes, 500 μM azide, heartworm antigen 50%
  500 μM Azide (mA): 363 mA
HRP [2]; TMBM substrate, 15 minutes, 500 μM azide, heartworm antigen 100%
  500 μM Azide (mA): 491 mA
HRP [2]; [12]
  50 μM azide (mA): 22 mA
  100 μM azide (mA): 31 mA
HRP [2]; [13]
  50 μM azide (mA): 64 mA
  100 μM azide (mA): 110 mA
HRP [2]; [14]
  50 μM azide (mA): 119 mA
  100 μM azide (mA): 150 mA
HRP [2]; [15]
  50 μM azide (mA): 270 mA
  100 μM azide (mA): 395 mA
HRP [2]; [16]
  50 μM azide (mA): 408 mA
  100 μM azide (mA): 628 mA
HRP [2]; [17]
  50 μM azide (mA): 646 mA
  100 μM azide (mA): 1046 mA
HRP [2]; TMBlue substrate, 3 minutes, 500 μM azide, heartworm antigen 0%
  500 μM Azide (mA): 21 mA
HRP [2]; TMBlue substrate, 3 minutes, 500 μM azide, heartworm antigen 5%
  500 μM Azide (mA): 73 mA
HRP [2]; TMBlue substrate, 3 minutes, 500 μM azide, heartworm antigen 10%
  500 μM Azide (mA): 121 mA
HRP [2]; TMBlue substrate, 3 minutes, 500 μM azide, heartworm antigen 25%
  500 μM Azide (mA): 265 mA
HRP [2]; TMBlue substrate, 3 minutes, 500 μM azide, heartworm antigen 50%
  500 μM Azide (mA): 462 mA
HRP [2]; TMBlue substrate, 3 minutes, 500 μM azide, heartworm antigen 100%
  500 μM Azide (mA): 734 mA
HRP [2]; up to 100 μM azide
  effect on assay sensitivity: does not produce a significant diminution of assay sensitivity
[3]
  loss of azide from closed containers: no azide is lost
[4]; microwell, 100 μL of 5 mM azide in succinate buffer, below pH 4.5, less than a half hour
  fraction of azide that evaporates: One-half to two-thirds
[4]; microwell, 100 μL of 5 mM azide in succinate buffer, pH 5.0
  fraction of azide lost: one-third
[4]; pH 5.5 and above, over a half hour
  loss of azide: no significant loss
[5]; antigen 0%
  azide added mA650-562: 118 mA
[5]; antigen 0.5%
  azide added mA650-562: 97 mA
[5]; antigen 1%
  azide added mA650-562: 123 mA
[5]; antigen 2.5%
  azide added mA650-562: 147 mA
[5]; antigen 5%
  azide added mA650-562: 149 mA
[5]; antigen 10%
  azide added mA650-562: 179 mA
[5]; antigen 25%
  azide added mA650-562: 305 mA

Reference: patent US20040248223A1, “Reduction of interfering peroxidase activity in peroxidase based detection methods” (IDEXX Laboratories, Inc., priority 2003, published 2004)
